From PubChem BioAssay (NCI)
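Interpolation was linear, between the two tested concentrations surrounding the appropriate level; five concentrations were tested over 48 hours in 96-well plates. Abbreviation: GI50, concentration required for 50% inhibition of growth. TGI marks complete inhibition of growth.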

Tests used:
Experiment in all cases: NCI-60 cell line screen, 48 h
T-47D breast = test system: T-47D breast
EKVX NSCLC = test system: EKVX NSCLC
ACHN renal = test system: ACHN renal
HCT-15 colon = test system: HCT-15 colon
MCF7 breast = test system: MCF7 breast
SR leukemia = test system: SR leukemia
LOX IMVI melanoma = test system: LOX IMVI melanoma
TK-10 renal = test system: TK-10 renal
OVCAR-4 ovarian = test system: OVCAR-4 ovarian
HCC-2998 colon = test system: HCC-2998 colon

SMILES	TGI (T-47D breast) [µM]	TGI (EKVX NSCLC) [µM]	TGI (ACHN renal) [µM]	TGI (HCT-15 colon) [µM]	TGI (MCF7 breast) [µM]	TGI (SR leukemia) [µM]	TGI (LOX IMVI melanoma) [µM]	TGI (TK-10 renal) [µM]	TGI (OVCAR-4 ovarian) [µM]	TGI (HCC-2998 colon) [µM]	GI50 (T-47D breast) [µM]	GI50 (EKVX NSCLC) [µM]	GI50 (TK-10 renal) [µM]	GI50 (ACHN renal) [µM]	GI50 (HCT-15 colon) [µM]	GI50 (OVCAR-4 ovarian) [µM]	GI50 (HCC-2998 colon) [µM]	GI50 (SR leukemia) [µM]	GI50 (LOX IMVI melanoma) [µM]	GI50 (MCF7 breast) [µM]
N#CC1=C(N)Nc2nc3ccccc3n2C1c1ccccc1 (centres undefined)	63.1	57.4	68.5	> 100	> 100	> 100	> 100													
S=C1NN=C2C(=C3CCCC4C5CCCCC5N2C34)N1 (centres undefined)	> 100		> 100	> 100	> 100	> 100	> 100	> 100	> 100											
COc1ccc(/C=C/[N+](=O)[O-])cc1		41	32.4	15.2	5.83	5.48		27	38.2	2.73										
C/C(=C\COP(=O)(O)OP(=O)(O)O)CC/C=C(\C)CNc1ccc([N+](=O)[O-])cc1	> 100	> 100	> 100	> 100	> 100	> 100	> 100	> 100	> 100											
C[C@H](CCC1=NCCN1)[C@H]1CC[C@H]2[C@@H]3CC[C@@H]4C[C@H](O)CC[C@]4(C)[C@H]3CC[C@]12C	> 51.8	30.1	24.2	> 50.2	> 57.4	> 20	4.76	23.2	29.6	24.6										
NC(=O)c1cc(C2OC(CO)C(O)C2O)nn1-c1ccc([N+](=O)[O-])cc1 (centres undefined)		> 100	> 100	> 100			> 100	> 100	> 100	> 100										
C#C[C@@]1(O)[C@@H](CO)O[C@@H](n2cc(F)c3c(N)ncnc32)[C@@H]1O	0.77	11.3	> 100	3.19		> 100	1.11	6.56	8.67	2.82	0.214	0.675	0.736	0.24	0.297	1.01	0.6	0.185	0.279	
COC(=O)c1nc2c3c(cccc3c1C(=O)OC)Nc1ccccc1-2		> 100	> 100		> 100	> 100	> 100	> 100	> 100	> 100										
O=C(O)C(Br)Cc1ccc2c(c1)OCO2 (centres undefined)		> 100	> 100	> 100		> 100			> 100	> 100										
COc1ccc(/C(Cl)=C(\C=O)c2ccc(Cl)c(Cl)c2)cc1OC		30.6	18.2	20.7			13.6	51.4												
COc1cc2c3c(c4cc(OC)c(OC)cc4c2cc1OC)[C@H](O)[C@@H]1CCCN1C3	2.53	0.938	0.3	5.45		2.67	2.75	1.55	0.702											
CSc1sc(=S)sc1SC		> 100		> 100	> 100		> 100		> 100	> 100										
COc1cc2c3c(n(C4CCNCC4)c(=O)c2cc1OC)-c1cc2c(cc1C3=O)OCO2	2.38			1.77				3.65	2.95	2.71	0.395		1.8		0.396	1.42	1.34			
Nc1nncs1	> 4800	> 5000	> 5000	4920	> 5000	> 5000	> 5000	> 5000	> 5000	> 5000										
COc1ccc2c(c1)/C(=C\c1cccc(/C=C3/C(=O)Nc4ccc(OC)cc43)n1)C(=O)N2	2.53	> 40.3	5.41	> 25.1	> 25.6	0.452	1.24	6.57	3.28	3.58								0.209		
CCOn1cc(C2=C(c3c[nH]c4ccccc34)C(=O)NC2=O)c2ccccc21	> 100	29.9	16.4	14.8	1.03	29.4	25.9	0.198	> 72.4	< 0.01	18.5	14.6	0.0322			14.6	< 0.01	0.0343		< 0.0149
COC1/C=C\OC2(C)Oc3c(C)c(O)c4c(O)c(c(CN(C)C)c(O)c4c3C2=O)NC(=O)/C(C)=C\C=C/C(C)C(O)C(C)C(O)C(C)C(OC(C)=O)C1C (centres undefined)	> 100	61.4	> 100	> 100	34.8	43.1	35	> 100	> 100	55.8										
O=C1OC2(c3ccc(O)cc3Oc3cc(O)ccc32)c2c1c(-c1ccccc1)c(-c1ccccc1)c(-c1ccccc1)c2-c1ccccc1	71.4	59.1	40.9	38.5	31.1	46.1	32.4	59.6	80.7	30										
CCCCCCCCCCCCCCCCOCCCOP(=O)(O)C1CCCN(O)C1=O (centres undefined)	27.5	16.3	14.2	12.1	20		11.4	23.4	19.2	14.6	6.15	3.6	0.738	3.2	0.472	2.43	1.11		2.86	3.39
CC1(C)N=C(N)N=C(N)N1c1cccc(OCc2cccc([N+](=O)[O-])c2)c1	> 89.1	> 100	> 100	> 100	> 100		> 100	> 81.8	> 100											
